Experiments:
[1] = target: Cyclin-dependent kinase-like 3 (Homo sapiens) (UniProt Q8IVW4); settings: Compound concentration 1000.0 nM
[2] = target: Calcium/calmodulin-dependent protein kinase type 1G (Homo sapiens) (UniProt Q96NX5); settings: Compound concentration 1000.0 nM
[3] = target: 5-hydroxytryptamine receptor 1B (Homo sapiens) (UniProt P28222); settings: Compound concentration 10.0 uM
[4] = target: Tyrosine-protein kinase Fer (Homo sapiens) (UniProt P16591); settings: Compound concentration 1000.0 nM
[5] = target: Serine/threonine-protein kinase haspin (Homo sapiens) (UniProt Q8TF76); settings: Compound concentration 1000.0 nM
[6] = target: Histamine H2 receptor (Homo sapiens) (UniProt P25021); settings: Compound concentration 10.0 uM
[7] = target: Serine/threonine-protein kinase PAK 6 (Homo sapiens) (UniProt Q9NQU5); settings: Compound concentration 1000.0 nM
[8] = target: G protein-coupled receptor kinase 3 (Homo sapiens) (UniProt P35626); settings: Compound concentration 1000.0 nM
[9] = target: Kappa-type opioid receptor (Homo sapiens) (UniProt P41145); settings: Compound concentration 10.0 uM
[10] = target: ALK tyrosine kinase receptor (Homo sapiens) (UniProt Q9UM73); settings: Compound concentration 1000.0 nM
[11] = test system: Tyrosine-protein kinase ABL1 (Homo sapiens), P00519 [F317L]; settings: Compound concentration 1000.0 nM
[12] = target: Dual specificity mitogen-activated protein kinase kinase 5 (Homo sapiens) (UniProt Q13163); settings: Compound concentration 1000.0 nM
[13] = target: Citron Rho-interacting kinase (Homo sapiens) (UniProt O14578); settings: Compound concentration 1000.0 nM
[14] = target: Serine/threonine-protein kinase TNNI3K (Homo sapiens) (UniProt Q59H18); settings: Compound concentration 1000.0 nM
[15] = target: Dual specificity mitogen-activated protein kinase kinase 6 (Homo sapiens) (UniProt P52564); settings: Compound concentration 1000.0 nM
[16] = target: SNF-related serine/threonine-protein kinase (Homo sapiens) (UniProt Q9NRH2); settings: Compound concentration 1000.0 nM
[17] = target: Casein kinase I isoform gamma-3 (Homo sapiens) (UniProt Q9Y6M4); settings: Compound concentration 1000.0 nM
[18] = target: Activin receptor type-1-like (Homo sapiens) (UniProt P37023); settings: Compound concentration 1000.0 nM
[19] = test system: Epidermal growth factor receptor (Homo sapiens), P00533 [UNDEFINED MUTATION]; settings: Compound concentration 1000.0 nM
[20] = target: Mitogen-activated protein kinase 11 (Homo sapiens) (UniProt Q15759); settings: Compound concentration 1000.0 nM
[21] = test system: ALK tyrosine kinase receptor (Homo sapiens), Q9UM73 [C1156Y]; settings: Compound concentration 1000.0 nM
[22] = test system: Tyrosine-protein kinase ABL1 (Homo sapiens), P00519 [E255K]; settings: Compound concentration 1000.0 nM
[23] = target: T1, 5-hydroxytryptamine receptor 1A (Homo sapiens) (UniProt P08908); settings: Compound concentration 10.0 uM
T1 sequence (whole entry): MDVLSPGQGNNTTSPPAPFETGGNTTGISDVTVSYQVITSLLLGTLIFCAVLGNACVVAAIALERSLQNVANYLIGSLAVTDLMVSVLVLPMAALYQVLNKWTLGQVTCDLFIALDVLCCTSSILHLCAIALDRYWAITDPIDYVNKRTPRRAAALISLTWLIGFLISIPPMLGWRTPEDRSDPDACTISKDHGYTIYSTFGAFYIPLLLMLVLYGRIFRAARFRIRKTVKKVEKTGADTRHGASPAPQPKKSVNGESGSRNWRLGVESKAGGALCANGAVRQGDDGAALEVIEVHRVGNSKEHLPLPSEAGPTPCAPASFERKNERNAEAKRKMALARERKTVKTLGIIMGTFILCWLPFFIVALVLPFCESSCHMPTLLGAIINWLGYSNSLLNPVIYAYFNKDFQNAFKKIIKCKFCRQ

[24] = target: Serine/threonine-protein kinase Nek7 (Homo sapiens) (UniProt Q8TDX7); settings: Compound concentration 1000.0 nM
[25] = target: Myosin light chain kinase 2, skeletal/cardiac muscle (Homo sapiens) (UniProt Q9H1R3); settings: Compound concentration 1000.0 nM
[26] = test system: ALK tyrosine kinase receptor (Homo sapiens), Q9UM73 [L1196M]; settings: Compound concentration 1000.0 nM
[27] = target: RAC-alpha serine/threonine-protein kinase (Homo sapiens) (UniProt P31749); settings: Compound concentration 1000.0 nM
[28] = target: Insulin receptor (Homo sapiens) (UniProt P06213); settings: Compound concentration 1000.0 nM
[29] = target: Sigma intracellular receptor 2 (Homo sapiens) (UniProt Q5BJF2); settings: Compound concentration 10.0 uM
[30] = target: Casein kinase I isoform gamma-2 (Homo sapiens) (UniProt P78368); settings: Compound concentration 1000.0 nM
[31] = target: Serine/threonine-protein kinase Nek2 (Homo sapiens) (UniProt P51955); settings: Compound concentration 1000.0 nM
[32] = target: Myosin light chain kinase (Homo sapiens) (UniProt Q32MK0); settings: Compound concentration 1000.0 nM
[33] = target: Ephrin type-B receptor 1 (Homo sapiens) (UniProt P54762); settings: Compound concentration 1000.0 nM
[34] = target: Receptor-type tyrosine-protein kinase FLT3 (Homo sapiens) (UniProt P36888); settings: Compound concentration 1000.0 nM
[35] = test system: Mast/stem cell growth factor receptor Kit (Homo sapiens), P10721 [A829P]; settings: Compound concentration 1000.0 nM
[36] = target: Inhibitor of nuclear factor kappa-B kinase subunit alpha (Homo sapiens) (UniProt O15111); settings: Compound concentration 1000.0 nM
[37] = target: TRAF2 and NCK-interacting protein kinase (Homo sapiens) (UniProt Q9UKE5); settings: Compound concentration 1000.0 nM
[38] = test system: Receptor-type tyrosine-protein kinase FLT3 (Homo sapiens), P36888 [D835H]; settings: Compound concentration 1000.0 nM
[39] = target: Tyrosine-protein kinase ZAP-70 (Homo sapiens) (UniProt P43403); settings: Compound concentration 1000.0 nM
[40] = target: Proto-oncogene tyrosine-protein kinase Src (Homo sapiens) (UniProt P12931); settings: Compound concentration 1000.0 nM

Sequence of Tyrosine-protein kinase ABL1 (Homo sapiens), P00519 [F317L] (P00519 whole entry F317L): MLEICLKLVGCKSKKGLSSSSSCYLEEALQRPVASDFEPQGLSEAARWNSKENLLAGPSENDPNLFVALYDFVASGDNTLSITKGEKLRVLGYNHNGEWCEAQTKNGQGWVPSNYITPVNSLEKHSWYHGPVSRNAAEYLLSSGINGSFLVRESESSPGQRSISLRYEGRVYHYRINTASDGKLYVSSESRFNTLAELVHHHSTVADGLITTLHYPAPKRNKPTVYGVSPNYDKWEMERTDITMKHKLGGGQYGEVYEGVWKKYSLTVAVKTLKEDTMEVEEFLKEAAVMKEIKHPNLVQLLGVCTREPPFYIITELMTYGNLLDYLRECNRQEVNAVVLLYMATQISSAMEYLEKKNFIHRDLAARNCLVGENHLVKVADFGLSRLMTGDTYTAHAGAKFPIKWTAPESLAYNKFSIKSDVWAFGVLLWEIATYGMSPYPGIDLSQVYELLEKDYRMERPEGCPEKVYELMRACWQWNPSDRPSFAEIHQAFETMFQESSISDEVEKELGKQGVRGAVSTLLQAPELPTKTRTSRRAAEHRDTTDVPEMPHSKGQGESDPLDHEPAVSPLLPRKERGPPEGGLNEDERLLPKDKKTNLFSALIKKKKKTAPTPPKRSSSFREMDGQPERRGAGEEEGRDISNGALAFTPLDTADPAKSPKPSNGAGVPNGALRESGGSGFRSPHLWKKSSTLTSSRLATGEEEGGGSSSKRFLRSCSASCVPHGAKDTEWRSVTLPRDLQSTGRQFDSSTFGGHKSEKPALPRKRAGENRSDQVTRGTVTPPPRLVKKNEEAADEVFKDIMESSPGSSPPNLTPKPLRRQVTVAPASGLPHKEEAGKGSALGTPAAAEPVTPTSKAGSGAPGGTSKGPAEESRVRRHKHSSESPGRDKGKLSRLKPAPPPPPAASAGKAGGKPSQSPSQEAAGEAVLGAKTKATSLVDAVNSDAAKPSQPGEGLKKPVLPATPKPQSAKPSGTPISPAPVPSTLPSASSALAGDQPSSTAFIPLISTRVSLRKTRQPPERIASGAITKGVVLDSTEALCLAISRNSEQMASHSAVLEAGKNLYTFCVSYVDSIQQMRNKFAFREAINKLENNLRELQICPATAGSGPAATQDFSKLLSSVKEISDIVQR
Sequence of ALK tyrosine kinase receptor (Homo sapiens) (Q9UM73 19-1620 limits assumed): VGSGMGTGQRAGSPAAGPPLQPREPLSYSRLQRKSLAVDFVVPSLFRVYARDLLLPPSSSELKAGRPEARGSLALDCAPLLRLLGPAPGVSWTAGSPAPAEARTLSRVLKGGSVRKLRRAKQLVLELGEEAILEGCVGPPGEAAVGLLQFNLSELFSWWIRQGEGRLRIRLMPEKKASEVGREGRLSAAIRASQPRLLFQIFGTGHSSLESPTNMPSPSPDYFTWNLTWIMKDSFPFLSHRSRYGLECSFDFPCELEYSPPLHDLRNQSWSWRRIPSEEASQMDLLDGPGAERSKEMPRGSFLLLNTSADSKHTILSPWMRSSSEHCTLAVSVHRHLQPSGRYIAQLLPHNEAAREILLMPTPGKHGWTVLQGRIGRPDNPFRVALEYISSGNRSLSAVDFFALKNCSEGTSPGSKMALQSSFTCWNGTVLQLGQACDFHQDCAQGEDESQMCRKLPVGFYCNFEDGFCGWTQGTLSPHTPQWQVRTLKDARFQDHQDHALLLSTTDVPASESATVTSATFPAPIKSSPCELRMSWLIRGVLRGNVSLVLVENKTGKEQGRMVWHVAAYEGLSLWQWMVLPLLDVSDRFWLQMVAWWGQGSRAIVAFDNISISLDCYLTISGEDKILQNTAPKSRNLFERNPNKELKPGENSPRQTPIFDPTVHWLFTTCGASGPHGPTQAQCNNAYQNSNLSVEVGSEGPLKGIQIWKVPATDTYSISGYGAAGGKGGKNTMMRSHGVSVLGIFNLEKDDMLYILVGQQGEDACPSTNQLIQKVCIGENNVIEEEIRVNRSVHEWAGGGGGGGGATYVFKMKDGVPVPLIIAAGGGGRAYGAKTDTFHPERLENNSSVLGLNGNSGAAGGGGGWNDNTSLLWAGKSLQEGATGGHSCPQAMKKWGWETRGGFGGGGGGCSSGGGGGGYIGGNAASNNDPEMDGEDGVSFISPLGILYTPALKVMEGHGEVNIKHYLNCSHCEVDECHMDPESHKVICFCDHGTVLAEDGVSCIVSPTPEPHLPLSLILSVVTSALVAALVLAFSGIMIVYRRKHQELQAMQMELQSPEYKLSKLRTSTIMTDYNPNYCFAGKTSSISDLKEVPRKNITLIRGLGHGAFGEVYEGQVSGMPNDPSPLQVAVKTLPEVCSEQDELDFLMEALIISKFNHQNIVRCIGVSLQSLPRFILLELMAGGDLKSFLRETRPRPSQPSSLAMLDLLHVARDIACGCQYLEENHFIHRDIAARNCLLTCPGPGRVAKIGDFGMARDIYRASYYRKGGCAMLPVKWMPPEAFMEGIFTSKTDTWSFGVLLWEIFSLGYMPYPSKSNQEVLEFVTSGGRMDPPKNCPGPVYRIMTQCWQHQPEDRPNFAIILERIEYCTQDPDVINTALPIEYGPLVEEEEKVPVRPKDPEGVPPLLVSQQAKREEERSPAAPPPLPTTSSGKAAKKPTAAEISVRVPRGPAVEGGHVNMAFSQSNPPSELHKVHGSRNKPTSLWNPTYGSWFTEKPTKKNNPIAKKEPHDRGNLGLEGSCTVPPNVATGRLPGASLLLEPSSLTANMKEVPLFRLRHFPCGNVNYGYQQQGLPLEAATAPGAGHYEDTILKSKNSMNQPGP
Sequence of Activin receptor type-1-like (Homo sapiens) (P37023 whole entry): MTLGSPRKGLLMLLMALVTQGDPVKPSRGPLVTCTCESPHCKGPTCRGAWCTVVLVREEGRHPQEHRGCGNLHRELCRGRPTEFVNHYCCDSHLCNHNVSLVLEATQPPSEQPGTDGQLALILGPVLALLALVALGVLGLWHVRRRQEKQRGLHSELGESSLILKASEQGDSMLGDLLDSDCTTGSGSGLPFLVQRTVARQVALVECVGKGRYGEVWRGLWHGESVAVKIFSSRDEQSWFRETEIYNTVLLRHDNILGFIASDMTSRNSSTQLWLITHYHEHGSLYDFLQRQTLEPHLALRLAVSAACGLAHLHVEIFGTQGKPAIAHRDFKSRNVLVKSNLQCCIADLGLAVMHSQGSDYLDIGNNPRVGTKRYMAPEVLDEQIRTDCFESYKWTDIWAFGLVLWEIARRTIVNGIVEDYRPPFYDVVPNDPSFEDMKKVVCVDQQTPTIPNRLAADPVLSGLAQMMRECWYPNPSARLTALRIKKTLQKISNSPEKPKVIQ
Sequence of Tyrosine-protein kinase ZAP-70 (Homo sapiens) (P43403 whole entry): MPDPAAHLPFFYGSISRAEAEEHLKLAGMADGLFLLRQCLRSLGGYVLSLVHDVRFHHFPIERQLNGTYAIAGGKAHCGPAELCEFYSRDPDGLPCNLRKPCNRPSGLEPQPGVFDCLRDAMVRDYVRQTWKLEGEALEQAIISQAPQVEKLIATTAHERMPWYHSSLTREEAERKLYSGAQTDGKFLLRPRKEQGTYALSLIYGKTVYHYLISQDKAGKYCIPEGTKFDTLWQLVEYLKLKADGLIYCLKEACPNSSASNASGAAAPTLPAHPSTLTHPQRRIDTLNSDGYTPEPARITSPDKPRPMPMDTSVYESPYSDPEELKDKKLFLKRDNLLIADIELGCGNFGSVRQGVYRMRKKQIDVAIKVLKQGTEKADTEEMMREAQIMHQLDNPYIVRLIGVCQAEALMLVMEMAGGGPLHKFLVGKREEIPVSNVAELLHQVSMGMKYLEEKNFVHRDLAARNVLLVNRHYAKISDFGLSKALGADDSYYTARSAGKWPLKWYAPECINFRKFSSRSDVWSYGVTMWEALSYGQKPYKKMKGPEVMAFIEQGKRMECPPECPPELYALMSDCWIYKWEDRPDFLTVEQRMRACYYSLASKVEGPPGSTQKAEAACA
Sequence of Casein kinase I isoform gamma-2 (Homo sapiens) (P78368 whole entry, looked up, canonical isoform): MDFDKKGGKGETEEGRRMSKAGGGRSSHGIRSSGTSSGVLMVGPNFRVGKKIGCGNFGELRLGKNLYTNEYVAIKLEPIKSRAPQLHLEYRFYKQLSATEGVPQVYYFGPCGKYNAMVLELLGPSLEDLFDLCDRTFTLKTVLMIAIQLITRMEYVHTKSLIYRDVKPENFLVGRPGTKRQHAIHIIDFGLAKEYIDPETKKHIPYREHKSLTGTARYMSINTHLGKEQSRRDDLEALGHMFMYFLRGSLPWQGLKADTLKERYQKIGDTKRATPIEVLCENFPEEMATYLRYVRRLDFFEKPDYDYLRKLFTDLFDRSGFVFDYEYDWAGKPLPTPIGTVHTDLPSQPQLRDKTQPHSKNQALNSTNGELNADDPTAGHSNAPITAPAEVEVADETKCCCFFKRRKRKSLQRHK
Sequence of Serine/threonine-protein kinase TNNI3K (Homo sapiens) (Q59H18 whole entry): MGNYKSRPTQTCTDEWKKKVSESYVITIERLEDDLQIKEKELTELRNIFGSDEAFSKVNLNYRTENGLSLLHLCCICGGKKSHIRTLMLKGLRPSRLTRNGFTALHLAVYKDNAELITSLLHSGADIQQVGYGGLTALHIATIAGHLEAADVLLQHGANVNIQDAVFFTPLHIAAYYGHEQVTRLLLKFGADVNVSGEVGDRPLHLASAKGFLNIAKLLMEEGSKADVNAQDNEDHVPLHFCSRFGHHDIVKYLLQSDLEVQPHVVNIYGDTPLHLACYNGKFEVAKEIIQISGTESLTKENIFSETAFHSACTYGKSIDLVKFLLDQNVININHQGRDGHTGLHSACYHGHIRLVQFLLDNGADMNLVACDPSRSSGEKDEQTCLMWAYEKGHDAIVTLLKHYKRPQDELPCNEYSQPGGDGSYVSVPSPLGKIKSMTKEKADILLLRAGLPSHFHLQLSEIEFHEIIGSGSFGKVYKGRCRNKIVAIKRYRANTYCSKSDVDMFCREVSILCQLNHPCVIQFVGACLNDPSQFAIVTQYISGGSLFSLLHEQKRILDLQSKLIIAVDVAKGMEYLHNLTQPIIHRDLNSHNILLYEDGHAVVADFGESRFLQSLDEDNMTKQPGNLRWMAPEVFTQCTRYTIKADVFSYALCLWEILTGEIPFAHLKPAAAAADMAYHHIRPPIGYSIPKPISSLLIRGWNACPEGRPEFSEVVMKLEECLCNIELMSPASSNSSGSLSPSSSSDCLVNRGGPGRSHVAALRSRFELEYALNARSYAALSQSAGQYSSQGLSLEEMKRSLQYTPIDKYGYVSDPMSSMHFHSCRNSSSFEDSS

Compound	residual activity [1] [%]	residual activity [2] [%]	inhibition [3] [%]	residual activity [4] [%]	residual activity [5] [%]	inhibition [6] [%]	residual activity [7] [%]	residual activity [8] [%]	inhibition [9] [%]	residual activity [10] [%]	residual activity [11] [%]	residual activity [12] [%]	residual activity [13] [%]	residual activity [14] [%]	residual activity [15] [%]	residual activity [16] [%]	residual activity [17] [%]	residual activity [18] [%]	residual activity [19] [%]	residual activity [20] [%]	further results
O=C(O)[C@@H]1[C@@H](Cn2nnc3ccccc3c2=O)CC[C@H]1C(=O)c1ccc(OCCC2CCOCC2)cc1 [BAY-694]	98	100	8.05	87	88	17.5	99	100	8.5	100	92	73	92	94	100	100	100	97	53	99	residual activity [21]: 100%; residual activity [22]: 84%; inhibition [23]: 7.62%; residual activity [24]: 100%; residual activity [25]: 100%; residual activity [26]: 93%; residual activity [27]: 75%; residual activity [28]: 85%; inhibition [29]: 39.3%; residual activity [30]: 100%; residual activity [31]: 100%; residual activity [32]: 72%; residual activity [33]: 100%; residual activity [34]: 86%; residual activity [35]: 90%; residual activity [36]: 100%; residual activity [37]: 93%; residual activity [38]: 83%; residual activity [39]: 99%; residual activity [40]: 89%
O=C(O)[C@H]1[C@H](Cn2nnc3ccccc3c2=O)CC[C@@H]1C(=O)c1ccc(OCCC2CCOCC2)cc1 [BAY-7598]	87	90	11.5	90	84	12.6	100	100	-3.04	100	81	100	77	100	100	95	100	85	40	78	residual activity [21]: 100%; residual activity [22]: 75%; inhibition [23]: -0.18%; residual activity [24]: 100%; residual activity [25]: 83%; residual activity [26]: 81%; residual activity [27]: 83%; residual activity [28]: 78%; inhibition [29]: 28.5%; residual activity [30]: 87%; residual activity [31]: 100%; residual activity [32]: 93%; residual activity [33]: 100%; residual activity [34]: 96%; residual activity [35]: 84%; residual activity [36]: 100%; residual activity [37]: 84%; residual activity [38]: 72%; residual activity [39]: 100%; residual activity [40]: 89%
